Consider 2 substances from US20100196492A1, “ELECTROSTATIC COATING OF PARTICLES FOR DRUG DELIVERY” (priority 2007, published 2010).

Experiment [1] concerns LS174T cells. The experiment in a line: Cytotoxicity of gelonin coated C32/DNA particles. The format is cell-based. The note with it: single treatment; 70 w/w C32, 600 ng DNA, 100 nM gelonin; colon cancer cells. Here is the method:
FIG. 14. Cytotoxity of composition on cells using a cytotoxic drug itself as the coating. 70 w/w C32 particles with 600 ng DNA were coated with 100 nM gelonin (a 28 kD protein) to test the cytotoxicity of the compostion in LS174T cells.
Unformulated gelonin is unable to reach the cytoplasm unassisted. In constrast, the gelonin coated nanoparticles are able to be effectively internalized into the cell and released from the endosomal compartment into the cytoplasm, where they are active.

Experiment [2] deals with HUVECs. The experiment in a line: GFP transfection of confluent HUVECs in 12% serum, FACS. The format is cell-based, Human. The note with it: 40 w/w C32; N/P 1.55. An excerpt: GFP Transfections. Fluorescent Activated Cell Sorting (FACS) and enhanced green fluorescent protein (EGFP) DNA were utilized to determine the efficacy of nanoparticle gene delivery. FACS data was interpreted by using a two-dimensional contour plot that compares the ratio of EGFP channel fluorescence (x-axis) to yellow channel autofluorescence (y-axis) for greater accuracy than a one-dimensional histogram as previously described. […] These experiments took place under conditions generally seen as difficult for in vitro transfection, but important for an in vivo cardiovascular application: fully confluent, and therefore non-dividing, primary cells in the presence of a high concentration of serum proteins.
GFP Transfections. Non-viral nanoparticle transfections were performed on confluent HUVECs in the presence of 12% serum. HUVECs were seeded (75,000 cells/well) into clear 24-well plates (Becton Dickinson, Franklin Lakes, N.J., USA) at 24 hours prior to transfection to allow for growth to confluence. Nanoparticles were constructed as previously mentioned using a 6 μg DNA basis per well. Then 150 μL of each polymer/DNA/peptide nanoparticle solution was added to 1.00 mL of FBS supplemented EGM-2 media (12% Serum). […]
Flow Cytometry. GFP expression was measured using Fluorescence Activated Cell Sorting (FACS) on a FACSCalibur (Becton Dickinson, San Jose, Calif., USA). […]

On to gelonin, for which the cells killed entry in experiment [1] is “unable to kill any of the cells”.
Regarding EEEEEEEEEEEEGGGGGGGRDGS [E12-RDG], the “transfection of HUVECs (FACS gating of GFP)” value in experiment [2] was “do not”.
